According to patent EP3440167B2, “FRAGRANCED COMPOSITIONS AND THEIR USE” (Unilever IP Holdings B.V., priority 2016, dated 2017):

Tests used:
Assay type in all cases: physicochemical
[1] = Experiment A: ozone chamber exposure of β-ionone on a surface, headspace SPME-GCMS; details: 1 hour exposure
Method: A β-ionone solution (10 % w/w in ethanol) was applied to a surface (20 microlitres) and was allowed to dry for one hour in a fume cupboard. The surface was then placed at the base of the ozone chamber. The ozone generator plug-in was turned on for the required time at regular intervals to achieve the desired ozone concentration inside the chamber (either 250 ppb or 350 ppb). After exposure of a surface to ozone for the desired time of 1 hour the surface was removed from the chamber and placed in a capped PVC container. The surface was left in the PVC container for 10 min and then an additional 20 min with an SPME fibre exposed to the head-space environment of the container. The headspace was measured by SPME-GCMS and the ratios of β-cyclocitral to β-ionone determined as follows: […]

[2] = Experiment B: ozone chamber exposure at 100 ppb over time, headspace SPME-GCMS; details: 100 ppb ozone
Method: A β-ionone solution (10 % w/w in ethanol) was applied to a surface (20 microlitres) and was allowed to dry for one hour in a fume cupboard. The surface was then placed at the base of the ozone chamber. The ozone generator plug-in was turned on for the required time at regular intervals to achieve the desired ozone concentration inside the chamber (either 250 ppb or 350 ppb). After exposure of a surface to ozone for the desired time of 1 hour the surface was removed from the chamber and placed in a capped PVC container. The surface was left in the PVC container for 10 min and then an additional 20 min with an SPME fibre exposed to the head-space environment of the container. The headspace was measured by SPME-GCMS and the ratios of β-cyclocitral to β-ionone determined as follows:
This experiment was run like Experiment A, except that the ozone level used was 100 ppb and after 1,2,3,4 and 5 hours measurements of headspace were made and the ratios of β-cyclocitral / β-ionone were calculated from headspace concentration.

[3] = Example 3: exposure of β-ionone on filter paper in ozone-free glovebox, GC-MS of headspace and extract; details: ozone below detection limit, 1 hour exposure
Method: A 0.3% solution of β-ionone in ethanol and a 0.3% solution of β-cyclocitral were prepared. 1 ml of the β-ionone was placed on a piece of filter paper (cellulose, 75 mm dia.) and left for 2 minutes for the ethanol to evaporate. The filter paper was then placed in a glovebox containing an ozone "scrubber" and an ozone monitor (Aeroqual series 200 fitted with a 0 to 0.5 ppm sensor). Throughout the experiment the ozone level inside the glovebox was below the detection limit of the monitor. The ozone scrubber comprised an air pump (Interpet AirVolution AV4), pumping air at a rate of 600 l/hr through 0.75 g/l sodium thiosulphate solution.
After 1 hour exposure the filter paper was sealed in a 500 ml glass jar that had been adapted such that a SPME fibre could be introduced via a septum in the lid. The headspace above the sample was analysed using a Carboxen/DVB/PDMS SPME fibre using a 30 minute exposure. The fibre was then analysed by GC-MS. The filter paper was then removed, placed in a 28 ml glass vial and 3 ml of ethanol added. The vial was rollered for two hours after which the free ethanol was removed and analysed by GC-MS. The β-cyclocitral in ethanol solution was also analysed to indicate the appropriate retention time. […]

For CC(=O)/C=C/C1=C(C)CCCC1(C)C [β-ionone], which “ratio of β-cyclocitral to β-ionone” value ([1]; 250 ppb ozone) is on record?
Its value is 0.72.

What about the “ratio of β-cyclocitral to β-ionone” value ([1]; 350 ppb ozone) of the same compound?
Its value is 2.67.

And the “ratio of β-cyclocitral / β-ionone” value ([2]; 1 hour)?
Its value is 0.43.

What about the “ratio of β-cyclocitral / β-ionone” value ([2]; 2 hour) of the same compound?
Its value is 0.95.

What about the “ratio of β-cyclocitral / β-ionone” value ([2]; 3 hour) of the same compound?
The value was 1.87.

And the “ratio of β-cyclocitral / β-ionone” value ([2]; 4 hour)?
Its value is 7.00.

And the “ratio of β-cyclocitral / β-ionone” value ([2]; 5 hour)?
Its value is 11.00.

And the “β-cyclocitral detected in the headspace” value ([3]; SPME GC-MS of headspace)?
The value was “No β-cyclocitral was detected”.

And the “β-cyclocitral detected on the filter paper” value ([3]; ethanol extract of filter paper, GC-MS)?
The value was “No β-cyclocitral was detected”.
